C=CC1=C(C(=O)O)N2C(=O)[C@@H](NC(=O)/C(=N\OCC(=O)O)c3csc(N)n3)[C@H]2SC1.O.O.O
solubility (mole fraction) (in acetone, 278.15 K): 0.00223
solubility (mole fraction) (in acetone, 283.15 K): 0.00276
solubility (mole fraction) (in acetone, 288.15 K): 0.00308
solubility (mole fraction) (in acetone, 293.15 K): 0.00346
solubility (mole fraction) (in acetone, 298.15 K): 0.004
solubility (mole fraction) (in acetone, 303.15 K): 0.0044
solubility (mole fraction) (in acetone, 308.15 K): 0.00518
solubility (mole fraction) (in acetone, 313.15 K): 0.00581
solubility (mole fraction) (in acetone, 318.15 K): 0.00701
solubility (mole fraction) (in acetone, 323.15 K): 0.00854
solubility (mole fraction) (in ethanol, 278.15 K): 0.00189
solubility (mole fraction) (in ethanol, 283.15 K): 0.0021
solubility (mole fraction) (in ethanol, 288.15 K): 0.00246
solubility (mole fraction) (in ethanol, 293.15 K): 0.00285
solubility (mole fraction) (in ethanol, 298.15 K): 0.00321
solubility (mole fraction) (in ethanol, 303.15 K): 0.0037
solubility (mole fraction) (in ethanol, 308.15 K): 0.00415
solubility (mole fraction) (in ethanol, 313.15 K): 0.00478
solubility (mole fraction) (in ethanol, 318.15 K): 0.00536
solubility (mole fraction) (in ethanol, 323.15 K): 0.00632
solubility (mole fraction) (in ethyl acetate, 278.15 K): 0.000678
solubility (mole fraction) (in ethyl acetate, 283.15 K): 0.000747
solubility (mole fraction) (in ethyl acetate, 288.15 K): 0.000971
solubility (mole fraction) (in ethyl acetate, 293.15 K): 0.00116
solubility (mole fraction) (in ethyl acetate, 298.15 K): 0.00139
solubility (mole fraction) (in ethyl acetate, 303.15 K): 0.00159
solubility (mole fraction) (in ethyl acetate, 308.15 K): 0.00185
solubility (mole fraction) (in ethyl acetate, 313.15 K): 0.00226
solubility (mole fraction) (in ethyl acetate, 318.15 K): 0.00257
solubility (mole fraction) (in ethyl acetate, 323.15 K): 0.00334
solubility (mole fraction) (in isopropanol, 278.15 K): 0.000918
solubility (mole fraction) (in isopropanol, 283.15 K): 0.00105
solubility (mole fraction) (in isopropanol, 288.15 K): 0.00128
solubility (mole fraction) (in isopropanol, 293.15 K): 0.00148
solubility (mole fraction) (in isopropanol, 298.15 K): 0.00178
solubility (mole fraction) (in isopropanol, 303.15 K): 0.00195
solubility (mole fraction) (in isopropanol, 308.15 K): 0.0023
solubility (mole fraction) (in isopropanol, 313.15 K): 0.00255
solubility (mole fraction) (in isopropanol, 318.15 K): 0.00291
solubility (mole fraction) (in isopropanol, 323.15 K): 0.0035
solubility (mole fraction) (in n-butanol, 278.15 K): 0.000983
solubility (mole fraction) (in n-butanol, 283.15 K): 0.00102
solubility (mole fraction) (in n-butanol, 288.15 K): 0.00122
solubility (mole fraction) (in n-butanol, 293.15 K): 0.00151
solubility (mole fraction) (in n-butanol, 298.15 K): 0.00172
solubility (mole fraction) (in n-butanol, 303.15 K): 0.002
solubility (mole fraction) (in n-butanol, 308.15 K): 0.00249
solubility (mole fraction) (in n-butanol, 313.15 K): 0.00293
solubility (mole fraction) (in n-butanol, 318.15 K): 0.00343
solubility (mole fraction) (in n-butanol, 323.15 K): 0.00437
solubility (mole fraction) (in n-pentanol, 278.15 K): 0.000403
solubility (mole fraction) (in n-pentanol, 283.15 K): 0.00051
solubility (mole fraction) (in n-pentanol, 288.15 K): 0.000602
solubility (mole fraction) (in n-pentanol, 293.15 K): 0.000779
solubility (mole fraction) (in n-pentanol, 298.15 K): 0.00101
solubility (mole fraction) (in n-pentanol, 303.15 K): 0.00136
solubility (mole fraction) (in n-pentanol, 308.15 K): 0.00152
solubility (mole fraction) (in n-pentanol, 313.15 K): 0.00191
solubility (mole fraction) (in n-pentanol, 318.15 K): 0.00255
solubility (mole fraction) (in n-pentanol, 323.15 K): 0.003
solubility (mole fraction) (in sec-butanol, 278.15 K): 0.000899
solubility (mole fraction) (in sec-butanol, 283.15 K): 0.000995
solubility (mole fraction) (in sec-butanol, 288.15 K): 0.00119
solubility (mole fraction) (in sec-butanol, 293.15 K): 0.00143
solubility (mole fraction) (in sec-butanol, 298.15 K): 0.0015
solubility (mole fraction) (in sec-butanol, 303.15 K): 0.00173
solubility (mole fraction) (in sec-butanol, 308.15 K): 0.00211
solubility (mole fraction) (in sec-butanol, 313.15 K): 0.00234
solubility (mole fraction) (in sec-butanol, 318.15 K): 0.00276
solubility (mole fraction) (in sec-butanol, 323.15 K): 0.00316

Source: BigSolDB 2.1
